Data: US7723070B2, “Overexpression of aminoacyl-tRNA synthetases for efficient production of engineered proteins containing amino acid analogues” (California Institute of Technology, priority 2000, dated 2010)
“Also recorded” adds a separate entry of the source.

Experiments:
[1] = system: B834(DE3) or CAG18491 hosts with pQE15/pREP4 or pQE15-MRS/pREP4; assay: Translational activity: mDHFR synthesis, statements covering several bacterial hosts (with pQE15 or pQE15-MRS); format: cell-based, E. coli; conditions: for target protein mDHFR in SDS-PAGE: amino acids at 60 mg/liter, both bacterial hosts; for translational activity / incorporation in hosts with increased MetRS activity: hosts overproducing MetRS
Protocol: Methionine analogues were synthesized via alkylation of diethylacetamidomalonate, as previously described (As described in Example I, infra; J. C. M. van Hest, D. A. Tirrell, FEBS Lett. 1998, 428, 68-70). Cultures of B834(DE3)/pQE15-MRS/pREP4 or B834(DE3)/pQE15/pREP4 or CAG18491/pQE15-MRS/pREP4 or CAG18491/pQE15/pREP4 in M9AA media were grown to an optical density of 0.90, and the cells were sedimented by centrifugation. The M9AA medium was prepared by supplementing sterile M9 medium with […] of each of the amino acids, 1 mM MgSO4, 0.2 wt % glucose, 1 mg/ml thiamine chloride, and […] calcium chloride. The antibiotics ampicillin and kanamycin were added at concentrations of 200 mg/l and 35 mg/l, respectively.
Cells were washed three times with M9 salts and resuspended to an optical density of 0.90 in M9 test media containing 19 amino acids plus 1) neither methionine nor analogue (negative control); 2) methionine (60 mg/liter, positive control); or 3) an analogue of interest (60 mg/liter). To test the effect of increasing the level of supplementation of the analogues, a set of experiments was also conducted in which the medium was supplemented with 500 mg/liter of methionine or the amino acid analogue. Expression of mDHFR was induced by addition of 0.4 mM isopropyl β-D-thiogalactopyranoside (IPTG), and protein synthesis was monitored after 4.5 hours.

[2] = system: E. coli strain CAG18491/pQE15/pREP4; assay: Translational activity: mDHFR synthesis in methionine-depleted cultures of conventional host; format: cell-based; conditions: for mDHFR produced relative to cultures supplemented with methionine: control yield = methionine; for Protein Yield: mDHFR from 1-liter cultures supplemented with the analogue; for translational activity: capacity to support mDHFR synthesis in absence of methionine (SDS-PAGE): methionine-depleted minimal medium, IPTG induction
Protocol: Buffers and media were prepared according to standard protocols (Sambrook, J.; Fritsch, E. F.; Maniatis, T. Molecular Cloning: A Laboratory Manual, 2nd Ed. Cold Spring Harbor Laboratory Press, Cold Spring Harbor, N.Y. 1989; Ausubel, F. M.; Brent, K.; Kingston, K. E.; Moore, D. D.; Scidman, J. G.; Smith, J. A.; Struhl, K. Current Protocols in Molecular Biology, John Wiley & Sons, NY 1995). The E. coli methionine auxotroph CAG18491 (λ^−, rph-1, metE3079.:Tn10) (obtained from the Yale E. coli Genetic Stock Center), was transformed with plasmids pREP4 and pQE15 (Qiagen, Valencia, Calif.), to obtain the expression host CAG18491/pQE15/pREP4.
M9AA medium (50 mL) supplemented with 1 mM MgSO4, 0.2 wt % glucose, 1 mg/L thiamine chloride and the antibiotics ampicillin (200 mg/L) and kanamycin (25 mg/L) was inoculated with 2 mL of an overnight culture of CAG18491/pQE15/pREP4. When the turbidity of the culture reached an optical density at 600 nm (OD600) of 0.8, a medium shift was performed. The cells were sedimented for 10 min at 3030 g at 4° C., the supernatant was removed, and the cell pellet was washed twice with 20 mL of M9 medium. Cells were resuspended in 50 mL of the M9AA medium described above, without methionine. […] (0.31 mM), respectively. A culture lacking methionine (or any analogue) served as the negative control. Protein expression was induced by addition of isopropyl-β-D-thiogalactopyranoside (IPTG) to a final concentration of 0.4 mM. Samples were taken every hour for 4 h, the OD600 was measured, and the samples were sedimented. After the supernatant was decanted, the cell pellets were resuspended, in 20 μL distilled H2O.
Protein expression was monitored by SDS polyacrylamide gel electrophoresis (12% acrylamide running gel, 12 mA, 14 h), using a normalized OD600 of 0.2 per sample.
The example presented is for medium supplemented with 3. M9AA medium (100 mL) supplemented with 1 mM MgSO4 0.2 wt % glucose, 1 mg/L thiamine chloride and the antibiotics ampicillin (200 mg/L) and kanamycin (25 mg/L) was inoculated with E. coli strain CAG18491/pQE15/pREP4 and grown overnight at 37° C. This culture was used to inoculate 900 mL M9AA medium supplemented as described. The cells were grown to an OD600 of 0.94 and the medium shift was performed as described for the small scale experiments, followed by addition of 40 mL of 1 mg/mL DL-homopropargylglycine (3). IPTG (0.4 mM) was added, and samples were taken at 1 hour intervals. OD600 was measured, the samples were sedimented and decanted, and the cell pellets were resuspended in 20 μL distilled H2O. Protein expression was monitored by SDS polyacrylamide gel electrophoresis (12% acrylamide running gel, 12 mA, 15 h).
Approximately 4.5 h after induction, cells were sedimented (9,800 g, 10 min, 4° C.) and the supernatant was removed. The pellet was placed in the freezer overnight. The cells were thawed for 30 min at 37° C., 30 mL of buffer (6 M guanidine-HCl, 0.1 M NaH2PO4, 0.01 M Tris, pH 8) was added and the mixture was shaken at room temperature for 1 h. […] The supernatant was loaded on 10 mL of resin which was then washed with 50 mL of guanidine buffer followed by 25 mL of urea buffer (8 M urea, 0.1 M NaH2PO4 and 0.01 M Tris, pH 8). Similar urea buffers were used for three successive 25 mL washes at pH values of 6.3, 5.9 and 4.5, respectively. […] These washes were combined and dialyzed (Spectra/Por membrane 1, MWCO=6-8 kDa) against running distilled water for 4 days, followed by batchwise dialysis against doubly distilled water for one day. […] Amino acid analyses, electrospray mass spectrometry and N-terminal protein sequencing was performed on the mDHFR isolated.

Molecule | target protein mDHFR in SDS-PAGE [1] | mDHFR produced relative to cultures supplemented with methionine [2] | substitution/replacement of methionine by analogue (1H NMR, amino acid analysis, N-terminal sequencing together) ([2]; mDHFR) | Protein Yield [2] [mg/L] | translational activity: capacity to support mDHFR synthesis in absence of methionine (SDS-PAGE) [2] | translational activity / incorporation in hosts with increased MetRS activity [1]
C#CCCC(N)C(=O)O (racemic) [Analogue 3, DL-homopropargylglycine] | detected | equivalent | near-quantitative replacement of methionine | 35 | exhibit translational activity sufficient to allow protein synthesis; also recorded: serve effectively as methionine surrogates; also recorded: can be detected | 
C/C=C/CC(N)C(=O)O (racemic) [Analogue 5, trans-2-amino-4-hexenoic acid] |  |  |  | 0 | neither 5 or 11 support measurable protein synthesis; also recorded: prevented incorporation; also recorded: neither 4 nor 5 were indicated to be translationally active; also recorded: did not support measurable levels of protein synthesis | permits incorporation
2-butynylglycine [Analogue 11] |  |  |  | 0 | neither 5 or 11 support measurable protein synthesis; also recorded: not detected; also recorded: did not support measurable levels of protein synthesis | permits incorporation
C/C=C\CC(N)C(=O)O (racemic) [Analogue 4, cis-2-amino-4-hexenoic acid] | not observed |  |  |  | prevented incorporation; also recorded: neither 4 nor 5 were indicated to be translationally active | permits incorporation
CCCC[C@H](N)C(=O)O [Analogue 9, L-norleucine] | detected | 57% |  | 20 | confirmed; also recorded: does support protein synthesis; also recorded: can be detected | 
CCC[C@H](N)C(=O)O [Analogue 8, L-norvaline] | not observed |  |  |  | neither norvaline (8) nor 7 showed translational activity | permits incorporation
CSCC[C@H](N)C(=O)O [Analogue 1, L-methionine, reference compound] | detected |  |  | 35 | can be detected | 
C=CCCC(N)C(=O)O (racemic) [Analogue 2, DL-2-amino-5-hexenoic acid] | detected | 28% |  | 10 | exhibit translational activity sufficient to allow protein synthesis; also recorded: serve effectively as methionine surrogates; also recorded: can be detected | 
C=CCC(N)C(=O)O (stereo not drawn) [Analogue 12, allylglycine] | not observed |  |  |  |  | permits incorporation
CCCCCC(N)C(=O)O (racemic) [Analogue 7, DL-2-aminoheptanoic acid] | not observed |  |  |  | neither norvaline (8) nor 7 showed translational activity | permits incorporation
